From patent US20150141433A1, “N-ARYLMETHYL SULFONAMIDE NEGATIVE MODULATORS OF NR2A” (Mnemosyne Pharmaceuticals, Inc., priority 2013, published 2015)

target: T1, NR1/NR2A (Homo sapiens, UniProt Q05586+Q12879); experiment: FDSS Ca2+ influx inhibition assay in HEK293 cells expressing NR1/NR2A; type: cell-based; details: 3 μM glutamate, 3 μM glycine, 1 mM Ca2+, Ca2+ influx inhibition relative to MK801, read-out: NR2A IC50
T1 construct: host or cells: HEK293 (tetracycline-inducible NR2A expression)
Procedure: Cell Culture and plating: HEK293 cells expressing NR1/NR2A (Chantest, Cleveland, Ohio) were grown to 70-80% confluency as an adherent monolayer in standard tissue culture flasks at 37° C., 5% CO2 per supplier's instructions.
After induction, cell culture medium was removed and cells were rinsed once with Ca^2+ and Mg^2+-free Dulbecco's phosphate buffered saline. Cells were then removed from the flask using TrypLE™ Express (Life Technologies) according to the manufacturer's instructions and collected to 50 ml centrifuge tubes. Following two washes in Ca^27 Mg^2′-free HBSS with 20 mM HEPES (HHnoCa), cells were counted and viability assessed using trypan blue. To load cells with Ca^2′-sensitive dye, they were resuspended in fluo-8 plus Component B (AAT Bioquest Products) diluted in HHnoCa and incubated 15 minutes at 37° C., followed by 30 minutes at room temp (in dark). Cells were then washed and resuspended in HHnoCa to remove extracellular dye and plated in 384-well plates (Falcon, uncoated) at 20,000-30,000 cells/well in a final volume of 25 μL/well.
FDSS Assay: To each well of the plate, 10 μLtest compound, control (MK801) or HHnoCa buffer was added to a final concentration of 10 μM with a final concentration of DMSO of 0.1%. Following 10 minutes pre-incubation in the dark, plates are loaded onto the Hamamatsu FDSS 6000. After collecting baseline fluorescence images, 3 μM glutamate, 3 μM glycine, and 1 mM Ca^2+ in HHnoCa buffer is added to each well, and Ca^2+ is recorded for 3 minutes. Data were processed by computing ratio of fluorescence at the end of data collection to baseline fluorescence to assess degree of Ca^2+ influx inhibition relative to that observed in MK801.

T1 sequence (Q12879 23-1464, other chains not shown): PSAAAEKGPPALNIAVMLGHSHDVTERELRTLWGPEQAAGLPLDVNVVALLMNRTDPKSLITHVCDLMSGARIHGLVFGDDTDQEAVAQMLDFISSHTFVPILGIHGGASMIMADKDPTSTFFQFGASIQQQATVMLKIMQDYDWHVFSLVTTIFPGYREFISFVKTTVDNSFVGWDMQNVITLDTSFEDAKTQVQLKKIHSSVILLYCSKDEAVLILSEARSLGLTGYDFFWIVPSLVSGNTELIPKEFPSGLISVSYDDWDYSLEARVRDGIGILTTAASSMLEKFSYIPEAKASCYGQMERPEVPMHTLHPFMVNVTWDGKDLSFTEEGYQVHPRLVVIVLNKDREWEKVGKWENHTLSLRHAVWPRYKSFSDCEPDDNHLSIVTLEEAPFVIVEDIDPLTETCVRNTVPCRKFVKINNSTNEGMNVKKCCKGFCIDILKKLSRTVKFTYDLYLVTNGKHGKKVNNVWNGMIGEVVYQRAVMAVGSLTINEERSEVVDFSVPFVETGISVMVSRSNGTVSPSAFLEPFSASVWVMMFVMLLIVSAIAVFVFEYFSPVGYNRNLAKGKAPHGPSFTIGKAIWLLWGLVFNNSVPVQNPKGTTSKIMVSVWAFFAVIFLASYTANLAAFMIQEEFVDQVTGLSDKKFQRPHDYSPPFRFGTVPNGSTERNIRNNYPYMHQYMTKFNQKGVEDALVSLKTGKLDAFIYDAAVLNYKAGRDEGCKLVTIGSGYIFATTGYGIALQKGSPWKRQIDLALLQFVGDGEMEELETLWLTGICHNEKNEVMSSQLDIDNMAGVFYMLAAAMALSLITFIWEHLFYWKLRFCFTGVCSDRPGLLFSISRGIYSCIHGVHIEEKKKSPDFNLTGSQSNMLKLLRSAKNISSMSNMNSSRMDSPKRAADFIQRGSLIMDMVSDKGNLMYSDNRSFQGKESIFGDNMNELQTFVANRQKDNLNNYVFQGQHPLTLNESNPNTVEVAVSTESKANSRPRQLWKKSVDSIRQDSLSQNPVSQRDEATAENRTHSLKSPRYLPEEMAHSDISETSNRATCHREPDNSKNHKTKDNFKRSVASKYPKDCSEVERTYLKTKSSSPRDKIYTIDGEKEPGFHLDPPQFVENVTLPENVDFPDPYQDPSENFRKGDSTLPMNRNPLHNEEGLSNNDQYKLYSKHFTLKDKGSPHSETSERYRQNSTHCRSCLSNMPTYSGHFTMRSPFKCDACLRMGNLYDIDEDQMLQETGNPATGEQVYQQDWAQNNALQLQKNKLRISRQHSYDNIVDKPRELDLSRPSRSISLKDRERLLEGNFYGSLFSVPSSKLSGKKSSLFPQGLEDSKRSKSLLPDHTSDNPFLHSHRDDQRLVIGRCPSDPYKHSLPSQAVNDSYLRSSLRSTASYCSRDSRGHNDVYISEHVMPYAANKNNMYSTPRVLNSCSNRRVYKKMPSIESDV

| Structure (SMILES) | IC50 [nM] |
| --- | --- |
| Cc1csc(CNC(=O)c2cnc(CNS(=O)(=O)c3ccc(F)c(Cl)c3)cn2)n1 [5-(3-chloro-4-fluorobenzenesulfon-amidomethyl)-N-[(4-methyl-1,3-thiazol-2-yl)methyl]pyrazine-2-carboxamide] | ≥ 10000 |
| Cc1ccncc1CNC(=O)c1ccc(CNS(=O)(=O)c2ccc(F)c(Cl)c2)cn1 [5-(3-chloro-4-fluorobenzenesulfon-amidomethyl)-N-[(4-methylpyridin-3-yl)methyl]pyridine-2-carboxamide] | 187 |
| Cc1nnc(CNC(=O)c2ccc(CNS(=O)(=O)c3ccc(F)c(Cl)c3)cn2)o1 [5-(3-chloro-4-fluorobenzenesulfon-amidomethyl)-N-[(5-methyl-1,3,4-oxadiazol-2-yl)methyl]pyridine-2-carboxamide] | 2830 |
| Cc1nnc(CNC(=O)c2ccc(CNS(=O)(=O)c3ccc(F)c(Cl)c3)cn2)s1 [5-(3-chloro-4-fluorobenzenesulfon-amidomethyl)-N-[(5-methyl-1,3,4-thiadiazol-2-yl)methyl]pyridine-2-carboxamide] | 1020 |
| Cc1cnc(CNC(=O)c2cnc(CNS(=O)(=O)c3ccc(F)c(Cl)c3)cn2)cn1 [5-(3-chloro-4-fluorobenzenesulfon-amidomethyl)-N-[(5-methylpyrazin-2-yl)methyl]pyrazine-2-carboxamide] | 1250 |
| Cc1ncc(CNC(=O)c2ccc(CNS(=O)(=O)c3cccc(Cl)c3)cn2)s1 [5-(3-chlorobenzenesulfon-amidomethyl)-N-[(2-methyl-1,3-thiazol-5-yl)methyl]pyridine-2-carboxamide] | 1040 |
| Cc1ncc(CNC(=O)c2ccc(CNS(=O)(=O)c3ccc(Cl)c(F)c3)cn2)s1 [5-(4-chloro-3-fluorobenzenesulfon-amidomethyl)-N-[(2-methyl-1,3-thiazol-5-yl)methyl]pyridine-2-carboxamide] | 7450 |
| Cc1ncc(CNC(=O)c2cnc(CNS(=O)(=O)c3ccc(F)cc3)c(C)n2)s1 [5-(4-fluorobenzenesulfon-amidomethyl)-6-methyl-N-[(2-methyl-1,3-thiazol-5-yl)methyl]pyrazine-2-carboxamide] | 137 |
| Cc1ncc(CNC(=O)c2cnc(CNS(=O)(=O)c3ccc(F)cc3)cn2)s1 [5-(4-fluorobenzenesulfon-amidomethyl)-N-[(2-methyl-1,3-thiazol-5-yl)methyl]pyrazine-2-carboxamide] | 5510 |
| Cc1ncc(CNC(=O)c2ccc(CNS(=O)(=O)c3ccc(F)cc3)cn2)s1 [5-(4-fluorobenzenesulfon-amidomethyl)-N-[(2-methyl-1,3-thiazol-5-yl)methyl]pyridine-2-carboxamide] | 2840 |
| O=C(NCc1cccnc1)c1ccc(CNS(=O)(=O)c2ccc(F)c(Cl)c2)nc1 [6-(3-chloro-4-fluorobenzenesulfon-amidomethyl)-N-(pyridin-3-ylmethyl)pyridine-3-carboxamide] | 11000 |
| C[C@@H](NC(=O)c1ccc(CNS(=O)(=O)c2ccc(F)c(Cl)c2)nc1)c1cncs1 [6-(3-chloro-4-fluorobenzenesulfon-amidomethyl)-N-[(1R)-1-(1,3-thiazol-5-yl)ethyl]pyridine-3-carboxamide] | ≥ 10000 |
| Cc1cnc(CNC(=O)c2ccc(CNS(=O)(=O)c3ccc(F)c(Cl)c3)nc2)cn1 [6-(3-chloro-4-fluorobenzenesulfon-amidomethyl)-N-[(5-methylpyrazin-2-yl)methyl]pyridine-3-carboxamide] | 630 |
| Cn1ccnc1CNC(=O)c1ccc(CNS(=O)(=O)c2ccc(F)c(Cl)c2)nc1 [6-(3-chloro-4-fluorobenzenesulfon-amidomethyl)-N-[(l-methyl-1H-imidazol-2-yl)methyl]pyridine-3-carboxamide] | 108 |

Other lines, results leading:

| IC50 [nM] | Structure (SMILES) |
| --- | --- |
| 108 | Cc1ccncc1CNC(=O)c1cnc(CNS(=O)(=O)c2ccc(F)c(Cl)c2)cn1 [5-(3-chloro-4-fluorobenzenesulfon-amidomethyl)-N-[(4-methylpyridin-3-yl)methyl]pyrazine-2-carboxamide] |
| 1100 | O=C(NCc1cncc(F)c1)c1cnc(CNS(=O)(=O)c2ccc(F)c(Cl)c2)cn1 [5-(3-chloro-4-fluorobenzenesulfon-amidomethyl)-N-[(5-fluoropyridin-3-yl)methyl]pyrazine-2-carboxamide] |
| 2430 | Cc1nnc(CNC(=O)c2cnc(CNS(=O)(=O)c3ccc(F)c(Cl)c3)cn2)o1 [5-(3-chloro-4-fluorobenzenesulfon-amidomethyl)-N-[(5-methyl-1,3,4-oxadiazol-2-yl)methyl]pyrazine-2-carboxamide] |
| 624 | Cc1nnc(CNC(=O)c2cnc(CNS(=O)(=O)c3ccc(F)c(Cl)c3)cn2)s1 [5-(3-chloro-4-fluorobenzenesulfon-amidomethyl)-N-[(5-methyl-1,3,4-thiadiazol-2-yl)methyl]pyrazine-2-carboxamide] |
| 2000 | COc1ccc(CNC(=O)c2ccc(CNS(=O)(=O)c3ccc(F)c(Cl)c3)cn2)cn1 [5-(3-chloro-4-fluorobenzenesulfon-amidomethyl)-N-[(6-methoxypyridin-3-yl)methyl]pyridine-2-carboxamide] |
| 39.5 | Cc1ncc(CNC(=O)c2cnc(CNS(=O)(=O)c3cccc(Cl)c3)c(C)n2)s1 [5-(3-chlorobenzenesulfon-amidomethyl)-6-methyl-N-[(2-methyl-1,3-thiazol-5-yl)methyl]pyrazine-2-carboxamide] |
| 839 | Cc1ncc(CNC(=O)c2cnc(CNS(=O)(=O)c3cccc(Cl)c3)cn2)s1 [5-(3-chlorobenzenesulfon-amidomethyl)-N-[(2-methyl-1,3-thiazol-5-yl)methyl]pyrazine-2-carboxamide] |
| 1020 | Cc1ncc(CNC(=O)c2cnc(CNS(=O)(=O)c3ccc(Cl)c(F)c3)c(C)n2)s1 [5-(4-chloro-3-fluorobenzenesulfon-amidomethyl)-6-methyl-N-[(2-methyl-1,3-thiazol-5-yl)methyl]pyrazine-2-carboxamide] |
| 8060 | Cc1ncc(CNC(=O)c2cnc(CNS(=O)(=O)c3cc(Cl)ccc3F)c(C)n2)s1 [5-(5-chloro-2-fluorobenzenesulfon-amidomethyl)-6-methyl-N-[(2-methyl-1,3-thiazol-5-yl)methyl]pyrazine-2-carboxamide] |
| 790 | O=C(NCc1cnccn1)c1ccc(CNS(=O)(=O)c2ccc(F)c(Cl)c2)nc1 [6-(3-chloro-4-fluorobenzenesulfon-amidomethyl)-N-(pyrazin-2-ylmethyl)pyridine-3-carboxamide] |
| 9750 | Cc1ccncc1CNC(=O)c1ccc(CNS(=O)(=O)c2ccc(F)c(Cl)c2)nc1 [6-(3-chloro-4-fluorobenzenesulfon-amidomethyl)-N-[(4-methylpyridin-3-yl)methyl]pyridine-3-carboxamide] |
| 3770 | Cc1ncc(CNC(=O)c2cnc(CNS(=O)(=O)c3cccs3)cn2)s1 [N-[(2-methyl-1,3-thiazol-5-yl)methyl]-5-(thiophene-2-sulfonamidomethyl) pyrazine-2-carboxamide] |
| 4020 | Cc1ncc(CNC(=O)c2ccc(CNS(=O)(=O)c3cccs3)cn2)s1 [N-[(2-methyl-1,3-thiazol-5-yl)methyl]-5-(thiophene-2-sulfonamidomethyl) pyridine-2-carboxamide] |

same assay, conditions: binned NR2A inhibition concentration, read-out: Binned Activity

| Structure (SMILES) | IC50 [nM] |
| --- | --- |
| Cc1csc(CNC(=O)c2cnc(CNS(=O)(=O)c3ccc(F)c(Cl)c3)cn2)n1 [5-(3-chloro-4-fluorobenzenesulfon-amidomethyl)-N-[(4-methyl-1,3-thiazol-2-yl)methyl]pyrazine-2-carboxamide] | > 10000 |
| C[C@@H](NC(=O)c1ccc(CNS(=O)(=O)c2ccc(F)c(Cl)c2)nc1)c1cncs1 [6-(3-chloro-4-fluorobenzenesulfon-amidomethyl)-N-[(1R)-1-(1,3-thiazol-5-yl)ethyl]pyridine-3-carboxamide] | > 10000 |
